Consider 23 compounds from patent publication US10519177B2, “Heterocyclic compounds and uses thereof” (Plexxikon Inc., priority 2013, dated 2019).

The test system of assay [1] is bromodomain. Description: at least one of the bromodomain cell assays of Example 57. The assay is classed as cell-based. The note with it: at least one of the bromodomain cell assays described in Example 57; read-out: IC50 in at least one of the bromodomain cell assays.
Assay [2] deals with MV-4-11 cells. The experiment in a line: Oncology cell growth assay MV-4-11 (CellTiter Glo). The class given is cell-based. Conditions: read-out: Cell activity (IC50 μM) MV-4-11 3d-Growth. The procedure, abridged: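 Growth read by CellTiter Glo luminescence after 72 h compound treatment of MLL-AF4-bearing MV-4-11 cells (3000/well). Titration: 8 points, 1:3 steps, maximum 10 μM, 0.2% DMSO final. Data normalized to DMSO wells, four-parameter fit gives pIC50.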
Background: In ATP-based viability assays light output follows the ATP content of the culture.

The target of assay [3] is BRD4-BD1 (44-164) (Homo sapiens (Human), UniProt O60885). The experiment in a line: Alphascreen binding assay BRD4-BD1. The note with it: BRD4(1) H4; read-out: Biochemical activity (IC50 μM) BRD4(1) H4. The method, boiled down:
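AlphaScreen signal (nickel acceptor, streptavidin donor beads, 7.5 µg/ml each, read 30 min after addition) reports displacement of biotin-H4 K5/K8/K12/K16-acetyl peptide from His-BRD4 BD1 (44-164) or tandem BD12 (1-477).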
For orientation: In Alpha technology, singlet oxygen from a donor bead excites a nearby acceptor bead.

Assay [4] has as its target BRD4-BD12 (1-477) (Homo sapiens (Human), UniProt O60885). The experiment in a line: Alphascreen binding assay BRD4-BD12. Conditions: BRD4(1 2) H4; read-out: Biochemical activity (IC50 μM) BRD4(1 2) H4. The procedure, abridged:
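In this competition format, compounds displace a biotinylated tetra-acetyl H4 peptide from E. coli-expressed human BRD4 bromodomain constructs captured on nickel chelate beads. The reaction runs at pH 7.5 with 2 mM DTT and detergent for 1 h at room temperature before a 30 min bead step.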

pIC50: −log10 of the molar value. Like-named read-outs stand apart in the source and are kept apart here. A value given as a limit tells only on which side of the number the result lay.

As for `Cc1noc(C)c1-c1cnc2c(c1)c(CC1CCN(C(=O)Nc3ccccc3)CC1)cn2C` [P-0114, 4-[[5-(3,5-dimethylisoxazol-4-yl)-1-methyl-pyrrolo[2,3-b]pyridin-3-yl]methyl]-N-phenyl-piperidine-1-carboxamide], in assay [1], the pIC50 (in general, the negative decadic logarithm of the IC50, by convention in mol/L) was above 5.00. Besides, the IC50 (usually the point on the concentration scale where inhibition reaches its midpoint) in assay [2] (Homo sapiens, MV4-11, 72 h) was below 1 µM; in assay [3], below 1 µM.
`CCS(=O)(=O)N1CCC(Cc2cn(C)c3ncc(-c4c(C)noc4C)cc23)CC1` [P-0116, 4-[3-[(1-ethylsulfonyl-4-piperidyl)methyl]-1-methyl-pyrrolo[2,3-b]pyridin-5-yl]-3,5-dimethyl-isoxazole]: the pIC50 in assay [1] is above 5.00. Besides, the IC50 in assay [2] (Homo sapiens, MV4-11, 72 h) was 1 to 10 µM; in assay [3] it was below 1 µM.
In the case of `Cc1noc(C)c1-c1cnc2c(c1)c(CC1CCN(S(=O)(=O)C3CCCC3)CC1)cn2C` [P-0119, 4-[3-[(1-cyclopentylsulfonyl-4-piperidyl)methyl]-1-methyl-pyrrolo[2,3-b]pyridin-5-yl]-3,5-dimethyl-isoxazole], the pIC50 in assay [1] is above 5.00. For the same compound, the IC50 in assay [2] (Homo sapiens, MV4-11, 72 h) is 1 to 10 µM; in assay [3], 1 to 10 µM.
As to `Cc1noc(C)c1-c1cnc2c(-c3cnn(CC(F)(F)F)c3)cn(C(C)c3ccccc3)c2c1` (stereo not shown) [P-0202, 3,5-dimethyl-4-[1-(1-phenyl-ethyl)-3-[1-(2,2,2-trifluoro-ethyl)pyrazol-4-yl]pyrrolo[3,2-b]pyridin-6-yl]isoxazole], in assay [1], the pIC50 is above 5.00. Moreover, the IC50 in assay [2] (Homo sapiens, MV4-11, 72 h) was below 1 µM; in assay [3], below 1 µM.
Take `Cc1noc(C)c1-c1cnc2c(-c3cnn(C)c3)cn(C(C)c3ccccn3)c2c1` (stereo not shown) [P-0217, 3,5-dimethyl-4-[3-(1-methylpyrazol-4-yl)-1-[1-(2-pyridyl)ethyl]pyrrolo[3,2-b]pyridin-6-yl]isoxazole]: the pIC50 in assay [1] was above 5.00. Besides, the IC50 in assay [2] (Homo sapiens, MV4-11, 72 h) was below 1 µM; in assay [3], below 1 µM.
As for `[2H]C([2H])(C1CC(F)(F)C1)n1cc(-c2cnn(CC(F)(F)F)c2)c2ncc(-c3c(C)noc3C)cc21` [P-0257, 4-[1-[dideuterio-(3,3-difluorocyclobutyl)methyl]-3-[1-(2,2,2-trifluoroethyl)pyrazol-4-yl]pyrrolo[3,2-b]pyridin-6-yl]-3,5-dimethyl-isoxazole], in assay [1], the pIC50 is above 5.00. Besides, the IC50 in assay [4] was below 1 µM; in assay [2] (Homo sapiens, MV4-11, 72 h) it was below 1 µM; in assay [3], below 1 µM.
Take `[2H]C([2H])(C1CCC(F)(F)CC1)n1cc(I)c2ncc(-c3c(C)noc3C)cc21` [P-0262, 4-[1-[dideuterio-(4,4-difluorocyclohexyl)methyl]-3-iodo-pyrrolo[3,2-b]pyridin-6-yl]-3,5-dimethyl-isoxazole]: the pIC50 in assay [1] was above 5.00. The IC50 was below 1 µM in assay [4]; below 1 µM in assay [2] (Homo sapiens, MV4-11, 72 h); below 1 µM in assay [3].
On to `Cc1noc(C)c1-c1cnc2c(C#CCO)cn(CC3CCC(F)(F)CC3)c2c1` [P-0264, 3-[1-[(4,4-difluorocyclohexyl)methyl]-6-(3,5-dimethylisoxazol-4-yl)pyrrolo[3,2-b]pyridin-3-yl]prop-2-yn-1-ol], for which the pIC50 in assay [1] is above 5.00. In addition, the IC50 in assay [4] is 1 to 10 µM; in assay [2] (Homo sapiens, MV4-11, 72 h), below 1 µM; in assay [3], below 1 µM.
For `Cc1noc(C)c1-c1cnc2c(-c3cnn(CC(F)(F)F)c3)c[nH]c2c1` [P-0265, 3,5-dimethyl-4-[3-[1-(2,2,2-trifluoroethyl)pyrazol-4-yl]-1H-pyrrolo[3,2-b]pyridin-6-yl]isoxazole], in assay [1], the negative logarithm of the IC50 (pIC50) is above 5.00. For the same compound, the IC50 in assay [4] is below 1 µM; in assay [2] (Homo sapiens, MV4-11, 72 h), below 1 µM; in assay [3], below 1 µM.
On to `Cc1noc(C)c1-c1cnc2c(-c3cnn(CC(F)(F)F)c3)cn(C(CC#N)C3CCCC3)c2c1` (stereo not shown) [P-0266, 3-cyclopentyl-3-[6-(3,5-dimethylisoxazol-4-yl)-3-[1-(2,2,2-trifluoroethyl)pyrazol-4-yl]pyrrolo[3,2-b]pyridin-1-vl]propanenitrile], for which the pIC50 in assay [1] is above 5.00. Besides, the IC50 in assay [4] is below 1 µM; in assay [2] (Homo sapiens, MV4-11, 72 h), below 1 µM; in assay [3], below 1 µM.
For the compound `Cc1noc(C)c1-c1cnc2c(-c3cccnc3)cn(C(C)c3ccccc3)c2c1` (stereo not shown) [P-0267], in assay [1], the pIC50 was above 5.00. In addition, the IC50 in assay [4] was below 1 µM; in assay [2] (Homo sapiens, MV4-11, 72 h), below 1 µM; in assay [3], below 1 µM.
Consider `Cc1noc(C)c1-c1cnc2c(-c3ccnc(C4CC4)c3)cn(C(C)c3ccccc3)c2c1` (stereo not shown) [P-0268, 4-[3-(2-cyclopropyl-4-pyridyl)-1-(1-phenylethyl)pyrrolo[3,2-b]pyridin-6-yl]-3,5-dimethyl-isoxazole], for which, in assay [1], the pIC50 was above 5.00. Moreover, the IC50 in assay [4] is below 1 µM; in assay [2] (Homo sapiens, MV4-11, 72 h), below 1 µM; in assay [3], below 1 µM.
For the compound `Cc1noc(C)c1-c1cnc2c(-c3ccc(Cl)cc3)cn(C(C)c3ccccc3)c2c1` (stereo not shown) [P-0269, 4-[3-(4-chlorophenyl)-1-(1-phenylethyl)pyrrolo[3,2-b]pyridin-6-yl]-3,5-dimethyl-isoxazole], the pIC50 in assay [1] is above 5.00. Besides, the half-inhibitory concentration (IC50) is below 1 µM in assay [4]; 1 to 10 µM in assay [2] (Homo sapiens, MV4-11, 72 h); below 1 µM in assay [3].
On to `Cc1noc(C)c1-c1cnc2c(-c3ccc(O)nc3)cn(C(C)c3ccccc3)c2c1` (stereo not shown) [P-0270, 5-[6-(3,5-dimethylisoxazol-4-yl)-1-(1-phenylethyl)pyrrolo[3,2-b]pyridin-3-yl]pyridin-2-ol], for which, in assay [1], the pIC50 was above 5.00. In addition, the IC50 was below 1 µM in assay [4]; below 1 µM in assay [2] (Homo sapiens, MV4-11, 72 h); below 1 µM in assay [3].
For `COc1ccc(-c2cn(C(C)c3ccccc3)c3cc(-c4c(C)noc4C)cnc23)cn1` (stereo not shown) [P-0271, 4-[3-(6-methoxy-3-pyridyl)-1-(1-phenylethyl)pyrrolo[3,2-b]pyridin-6-yl]-3,5-dimethyl-isoxazole], the pIC50 in assay [1] was above 5.00. In addition, the IC50 in assay [4] was below 1 µM; in assay [2] (Homo sapiens, MV4-11, 72 h), below 1 µM; in assay [3], below 1 µM.
As for `Cc1ccc(-c2cn(C(C)c3ccccc3)c3cc(-c4c(C)noc4C)cnc23)cn1` (stereo not shown) [P-0272, 3,5-dimethyl-4-[3-(6-methyl-3-pyridyl)-1-(1-phenylethyl)pyrrolo[3,2-b]pyridin-6-yl]isoxazole], the pIC50 in assay [1] is above 5.00. Further, the IC50 in assay [4] is below 1 µM; in assay [2] (Homo sapiens, MV4-11, 72 h) it was below 1 µM; in assay [3], below 1 µM.
For `Cc1noc(C)c1-c1cnc2c(-c3ccc(C(=O)O)cc3)cn(C(C)c3ccccc3)c2c1` (stereo not shown) [P-0273, 4-[6-(3,5-dimethylisoxazol-4-yl)-1-(1-phenylethyl)pyrrolo[3,2-b]pyridin-3-yl]benzoic acid], the negative-log IC50 (pIC50) in assay [1] is above 5.00. The IC50 in assay [4] is below 1 µM; in assay [2] (Homo sapiens, MV4-11, 72 h) it was below 1 µM; in assay [3], below 1 µM.
In the case of `Cc1noc(C)c1-c1cnc2c(-c3ccc(=O)n(C)c3)cn(C(C)c3ccccc3)c2c1` (stereo not shown) [P-0274, 5-[6-(3,5-dimethylisoxazol-4-yl)-1-(1-phenylethyl)pyrrolo[3,2-b]pyridin-3-yl]-1-methyl-pyridin-2-one], the pIC50 in assay [1] is above 5.00. The IC50 in assay [4] was below 1 µM; in assay [2] (Homo sapiens, MV4-11, 72 h), below 1 µM; in assay [3], below 1 µM.
Consider `COc1ncc(-c2cn(C(C)c3ccccc3)c3cc(-c4c(C)noc4C)cnc23)cn1` (stereo not shown) [P-0275, 4-[3-(2-methoxypyrimidin-5-yl)-1-(1-phenylethyl)pyrrolo[3,2-b]pyridin-6-yl]-3,5-dimethyl-isoxazole], for which the pIC50 in assay [1] was above 5.00. Moreover, the IC50 is below 1 µM in assay [4]; below 1 µM in assay [2] (Homo sapiens, MV4-11, 72 h); below 1 µM in assay [3].
Turning to `Cc1noc(C)c1-c1cnc2c(-c3ccc(N)nc3)cn(C(C)c3ccccc3)c2c1` (stereo not shown) [P-0276, 5-[6-(3,5-dimethylisoxazol-4-yl)-1-(1-phenylethyl)pyrrolo[3,2-b]pyridin-3-yl]pyridin-2-amine], in assay [1], the pIC50 is above 5.00. Moreover, the IC50 in assay [4] is below 1 µM; in assay [2] (Homo sapiens, MV4-11, 72 h), below 1 µM; in assay [3], below 1 µM.
In the case of `Cc1noc(C)c1-c1cnc2c(-c3cnc(N)nc3)cn(C(C)c3ccccc3)c2c1` (stereo not shown) [P-0277, 5-[6-(3,5-dimethylisoxazol-4-yl)-1-(1-phenylethyl)pyrrolo[3,2-b]pyridin-3-yl]pyrimidin-2-amine], the pIC50 in assay [1] is above 5.00. For the same compound, the IC50 was below 1 µM in assay [4]; below 1 µM in assay [2] (Homo sapiens, MV4-11, 72 h); below 1 µM in assay [3].
In the case of `Cc1n[nH]cc1-c1cnc2ccn(CC3CCC(F)(F)CC3)c2c1` [P-0292, l-[(4,4-difluorocyclohexyl)methyl]-6-(3-methyl-1H-pyrazol-4-yl)pyrrolo[3,2-b]pyridine], the pIC50 in assay [1] was above 5.00. In addition, the IC50 is 1 to 10 µM in assay [2] (Homo sapiens, MV4-11, 72 h) and 10 to 200 µM in assay [3].
On to “[6-(3,5-dimethylisoxazol-4-yl)-1H-pyrrolo[3,2-b]pyridin-3-yl]-tetrahydrothiopyran-4-yl-methanone [P-0091]”, for which, in assay [1], the pIC50 is above 5.00. Further, the results for the IC50 in assay [2] (MV-4-11 3d-Growth) and in assay [3] were 1 to 10 µM and below 1 µM, respectively.
